{
  "source": "patent US9856293B2",
  "about": "“Methods for inducing nestin expression of astrocytes by nestin-inducing synthetic peptides derived from the BC-box of the SOCS6 protein” (TOAGOSEI CO. LTD., priority 2013, dated 2018)",
  "assay_type_in_all_cases": "cell-based",
  "key": {"[1]": {"system": "astrocytes derived from rat cerebral cortex (R-CxAs-520)", "assay": "Nestin expression inducing activity, western blot analysis of nestin and GFAP, astrocytes derived from the cerebral cortex", "conditions": "peptide 5 μM, 2 days; for expression of GFAP compared to the culture without addition of the peptide: anti-GFAP antibody; for expression of nestin compared to the culture without addition of the peptide: anti-nestin antibody, FIG. 4", "description": "(§1) Among the synthetic peptides obtained in Example 1, samples 1 to 3 were evaluated for nestin expression inducing activity by western blot analysis using an anti-nestin antibody. Cells used for the test were cultured cells of astrocytes derived from rat cerebral cortex (R-CxAs-520: available from Lonza). A comparative example was carried out without addition of the peptide. The evaluation test is detailed as follows.\nIn the same manner as in Example 4, the astrocytes derived from rat cerebral cortex were incubated in the presence of the peptide at a peptide concentration of 5 μM for 2 days. After the incubation was completed, total protein was extracted from cultured cells from each experimental sample in the same manner as in Example 3.\nSDS-PAGE and western blot analysis were then carried out in the same manner as in Example 3 to examine expression of nestin and GFAP in each experimental sample. An internal standard used in the series of procedures was the GAPDH protein.\nLanes 1, 2, 3 and 4 are the results without addition of the peptide, with addition of sample 2, with addition of sample 3 and with addition of sample 1, respectively."}, "[2]": {"system": "astrocytes derived from rat brain hippocampus (R-HiAs-521)", "assay": "Nestin expression inducing activity, nestin gene expression by qRT-PCR, astrocytes derived from the hippocampus", "conditions": "corrected with Actin β, peptide 5 μM, 2 days, FIG. 1", "description": "(§2) Among the synthetic peptides obtained in Example 1, sample 1 (i.e. the nestin-inducing synthetic peptide of the present invention) was evaluated for nestin expression inducing activity by quantifying the expression level of the nestin gene. Cells used for the test were cultured cells of astrocytes derived from rat brain hippocampus (R-HiAs-521: available from Lonza). The evaluation test is detailed as follows.\nThe astrocytes derived from rat brain hippocampus were inoculated into a 6-well cell culture plate at a density of 1.0×10^5 cells/well. […]\nAfter the incubation was completed, cultured cells from each experimental sample were washed with Cold PBS (−), and total RNA was extracted and purified using a commercially available RNA extraction and purification kit (NUCLEOSPIN™ RNA/Protein kit: available from Macherey Nagel). […] The purified RNA was quantified using Agilent 2100 Bioanalyzer (available from Agilent Technologies).\nThe purified RNA was subjected to qRT-PCR to examine the expression level of the nestin gene. […] RT-PCR employed the two-step RT-PCR method and quantitative PCR employed the TAQMAN® method. […]\nThe cDNA obtained in RT-PCR was then used as a template for quantitative PCR. […] Quantitative PCR reaction was carried out under the conditions of incubation at 95° C. for 10 seconds followed by 45 cycles of 95° C. for 15 seconds, 62° C. for 20 seconds and 72° C. for 20 seconds. […]"}, "[3]": {"system": "astrocytes derived from rat brain hippocampus (R-HiAs-521)", "assay": "Nestin expression inducing activity, western blot analysis of nestin and GFAP, astrocytes derived from the hippocampus", "conditions": "peptide 5 μM, 3 days", "description": "as §1, with “sample” for “samples”, “(i.e. the nestin-inducing synthetic peptide of the present invention) was” for “to 3 were”, “brain hippocampus (R-HiAs-521:” for “cerebral cortex (R-CxAs-520:”\nIn the same manner as in Example 2, the astrocytes derived from rat brain hippocampus were incubated in the presence of the peptide at a peptide concentration of 5 μM for 3 days. After the incubation was completed, cultured cells from each experimental sample were washed with Cold PBS (−), and total protein was extracted using a commercially available protein extraction and purification kit (NucleoSpin™ RNA/Protein kit: available from Macherey Nagel). All procedures were carried out in the absence of proteases according to the instruction attached to the kit. The concentration of the extracted protein was quantified using RC DC Protein assay (available from BIO RAD).\nAccording to the SDS (sodium dodecyl sulphate)-polyacrylamide electrophoresis (SDS-PAGE) and western blot analysis as described below, expression of nestin and GFAP in each experimental sample was examined. An internal standard used in the series of procedures was the GAPDH protein.\nSpecifically, proteins obtained from each experimental sample and a molecular weight marker (MagicMark™ XP Western Protein Standard: available from Life Technologies) were injected to a well of an SDS-polyacrylamide gel (precast gel for electrophoresis: available from Oriental Instruments Co., Ltd.) and SDS-PAGE was carried out. Electrophoresis of nestin was carried out on a 7.5% SDS-polyacrylamide gel and electrophoresis of GFAP and the GAPDH protein was carried out on a 5-20% SDS-polyacrylamide gel.\nThe proteins separated by SDS-PAGE were transferred (blotting) onto a PVDF (polyvinylidene difluoride) membrane which was then blocked in Perfect-Block (available from MoBiTec) diluted to 5% in PBS (−) containing Tween 20™ (hereinafter referred to as PBST (−)).\nNestin, GFAP and the GAPDH protein were detected with primary antibodies, an anti-nestin antibody (murine, available from Merck Millipore), an anti-GFAP antibody (murine, available from Progen Biotechnik) and an anti-GAPDH antibody (murine, available from Merck Millipore) diluted 500-, 5000- and 10000-fold, respectively, in PBST (−) by the reaction for 1 hour at room temperature. […]\nTarget proteins were then detected by reaction with the ECL prime Western blotting detection reagent (available from GE Healthcare) using the Luminescent image analyser LAS-3000 (available from Fujifilm Corporation). […]"}, "[4]": {"system": "astrocytes derived from rat brain cerebral cortex (R-CxAs-520)", "assay": "Nestin expression inducing activity, nestin gene expression by qRT-PCR, astrocytes derived from the cerebral cortex", "conditions": "corrected with Actin β, peptide 10 μM, 2 days, FIG. 3", "description": "as §2, with “cerebral cortex (R-CxAs-520:” for “hippocampus (R-HiAs-521:”\nThe astrocytes derived from rat cerebral cortex were inoculated into a 6-well cell culture plate at a density of 1.0×10^5 cells/well. The cells were incubated in the AG medium overnight in a CO2 incubator at 37° C. and 5% CO2.\nAfter the overnight incubation, the medium was replaced with an AG medium containing the peptide of sample 1 at the amount of 10 μM, and the incubation was continued under the same condition for 2 more days. A comparative example was carried out without addition of the peptide.\nAfter the incubation was completed, total RNA was extracted from cultured cells from each experimental sample in the same manner as in Example 2. […]\nThe expression level of the nestin gene in each experimental sample was corrected with the expression level of Actin β in each experimental sample. The expression level of each gene is expressed as a value relative to the expression level of the gene in the sample without addition of the peptide being regarded as 1."}},
  "note": "Ends that are not written are not given here.",
  "data": [
    {"sequence": "NLQDLCRIKIRQCIGKKRTLRKNDRKKR (NLQDLCRIKIRQCIGKKRTLRKNDRKKR-NH2; cysteine pairing not given here) [sample 2, reference compound]", "values": [
      {"measurement": "expression of GFAP compared to the culture without addition of the peptide", "setting": "[1]", "value": "difference in expression of nestin or GFAP was not confirmed"},
      {"measurement": "expression of nestin compared to the culture without addition of the peptide", "setting": "[1]", "value": "difference in expression of nestin or GFAP was not confirmed"}
    ]},
    {"sequence": "SLQYLCRFVIRQYTRKKRTLRKNDRKKR (SLQYLCRFVIRQYTRKKRTLRKNDRKKR-NH2) [sample 1]", "values": [
      {"measurement": "expression of the nestin gene compared to the culture without addition of the peptide", "setting": "[2]", "value": "significant increase"},
      {"measurement": "expression of GFAP compared to the culture without addition of the peptide", "setting": "[3]; anti-GFAP antibody", "value": "difference in expression of GFAP was not confirmed"},
      {"measurement": "expression of nestin compared to the culture without addition of the peptide", "setting": "[3]; anti-nestin antibody, FIG. 2", "value": "significant increase"},
      {"measurement": "co-expression of GFAP and nestin", "setting": "[3]", "value": "co-expressed"},
      {"measurement": "expression of nestin, times higher than the culture without addition of the peptide", "setting": "[3]", "value": "≥ 2", "unit": "times"},
      {"measurement": "expression of the nestin gene compared to the culture without addition of the peptide", "setting": "[4]", "value": "significant increase"},
      {"measurement": "expression of GFAP compared to the culture without addition of the peptide", "setting": "[1]", "value": "difference in expression of GFAP was not confirmed"},
      {"measurement": "expression of nestin compared to the culture without addition of the peptide", "setting": "[1]", "value": "significant increase"},
      {"measurement": "co-expression of GFAP and nestin", "setting": "[1]", "value": "co-expressed"},
      {"measurement": "expression of nestin, times higher than the culture without addition of the peptide", "setting": "[1]", "value": "≥ 2", "unit": "times"}
    ]},
    {"sequence": "TLHQQCIRVLKNNIDKKRTLRKNDRKKR (TLHQQCIRVLKNNIDKKRTLRKNDRKKR-NH2) [sample 3, reference compound]", "values": [
      {"measurement": "expression of GFAP compared to the culture without addition of the peptide", "setting": "[1]", "value": "difference in expression of nestin or GFAP was not confirmed"},
      {"measurement": "expression of nestin compared to the culture without addition of the peptide", "setting": "[1]", "value": "difference in expression of nestin or GFAP was not confirmed"}
    ]}
  ]
}
